Read-outs that look alike come from different tables or passages of the source.
Assays:
[1] = target: T1, rPpAChE1 (Phlebotomus papatasi, UniProt M1F887); test: biochemical; design: gene AChE; PpAChE1 cDNA in pBlueBac4.5/V5-His, baculovirus expression in Sf21 cells, expression supernatant; species or system Sf21 (expression host)
[2] = target: T1, rPpAChE1; test: biochemical; design: gene AChE
[3] = system: CC(=O)SCC[N+](C)(C)C; test: cells, lysate or membranes; conditions: pH 7.0

Compound: CCOC(=O)CC(SP(=O)(OC)OC)C(=O)OCC (stereo not shown) [Maloxon]
- IC50 [1]: 44 nM

Compound: c1ccc2c(NCCCCCCCNc3c4c(nc5ccccc35)CCCC4)c3c(nc2c1)CCCC3 [bis(7)-tacrine]
- IC50 [2]: 4 nM

Compound: rPpAChE1 (Phlebotomus papatasi)
- Km [3]: 123 ± 25 µM
- Vmax [3]: 74 ± 6.7 µmol/min/mg
